Measured values taken from US6821774B1, “Compositions and methods for increasing cholesterol efflux and raising HDL using ATP binding cassette transporter ABC1” (CV Therapeutics, Inc., priority 1999, dated 2004).

Assays:
Assay type in all cases: cell-based, mouse
RAW 264.7 cells = assay: Apo A-I-mediated cholesterol efflux assay in cholesterol-loaded RAW 264.7 macrophage cells
Experimental: To determine whether ligands for nuclear receptors affect the process of apolipoprotein-mediated cholesterol efflux, various ligands were tested using the apo A-I-mediated cholesterol efflux assay described in Example 12. The nuclear receptor superfamily includes several members, such as the liver receptor LXR, the retinoid receptor RXR, and the peroxisome proliferator-activated receptor PPAR, which have been implicated in lipid metabolism (Russell. D. W., Cell, 97:539-542 (1999); Spiegelman, B. W., Cell, 93:153-155 (1998); Janowski et al., Nature, 383:728-731 (1996)). […] Using the above-described assay, 9 cis-retinoic acid (RXR ligand), oxysterol (LXR ligand), and fenfibrate (PPAR ligand) was tested to determine the effect on cholesterol efflux.
To determine whether eicosanoids affect the process of apolipoprotein-mediated cholesterol efflux, PGE1 and PG12 were tested using the apo A-I-mediated cholesterol efflux assay described in Example 12.

ABC1 mRNA = ABC1 mRNA expression by RT-PCR in RAW 264.7 cells; settings: 10 μM, 24 hours, serum-free DMEM/BSA
Experimental: RT-PCR: Quantitative PCR was carried out using the GeneAmp 5700 Sequence Detection System (Perkin-Elmer Applied Biosystems, Foster City, Calif.). Briefly, 500 ng of DNase-treated mRNA was reverse transcribed using random hexamer primers at 2.5 μM. Approximately 5% of this reaction was amplified by PCR using the SYBR green core kit (PE Applied Biosystems, Foster City, Calif.; Cat. #4304886) and human ABC1 primers LF: 5′-[…] (SEQ ID NO: 11) and LR: 5′-[…] (SEQ ID NO: 12) to yield an 82 bp fragment corresponding to nucleotides 7018-7099 of human ABC1. PCR cycle conditions were as follows: 10 minutes 95° C.; followed by 40 cycles of 95° C., 15 seconds; and 60° C., 60 secounds. The mRNA in each sample was quantitated by detecting the increase in fluorescence caused by SYBR green binding to the double-stranded amplification product generated during each PCR cycle. All samples were run in triplicate and normalized against β-actin mRNA, amplified in parallel reactions with primers actinF: 5′-[…] (SEQ ID NO: 54) and actinB: 5′-[…] […]
Mouse RAW 264.7 cells were grown to subconfluence in DMEM/10% FBS and then treated for 24 hours in serum-free DMEM/BSA with either 9-cis retinoic acid (10 μM), 20-hydroxycholesterol (10 μM), or both ligands together (20 μM total). […] RNA was extracted, treated with DNase, and ABC1 mRNA measured by RT-PCR using PE Biosystems SYBR Green Technology as described in Example 9.

ABC1 promoter = assay: pAPR1 luciferase reporter assay (ABC1 promoter) in RAW 264.7 cells; settings: 24 hours
Source text: Construction of Reporter Plasmids: Plasmid pGL3-Basic (Promega, Madison, Wis.; Cat. #E1751) was used as a control plasmid containing the promoter less luciferase gene. The reporter construct containing the ABC1 promoter and luciferase gene was made by cloning a genomic fragment from the 5′ flanking region of the ABC1 gene (hAPR1 5′ promoter, corresponding to nucleotides 1080-1643 of SEQ ID NO: 3) into the SacI site of the GL3-Basic plasmid to generate plasmid GL-6a. Next, plasmid GL-6a was digested with SpeI and Acc65I. […]
Luciferase Assay: Following transfection, the cells in each well were lysed in 70 μl of 1× cell lysis reagent (Promega, Madison, Wis., Cat. #E3971), subjected to one freeze-thaw cycle, and the lysate cleared by centrifugation for 5 minutes at 12,000 g. […] The luciferase activity of each lysate was measured as light units using a luminometer. Additionally, the β-galactosidase activity of each lysate was measured using the chemiluminescent assay reagents supplied in the Galacto-light kit according to the manufacturer's instructions (Tropix Inc., Bedford, Mass.: Cat. #BL100G). The normalized luciferase activity for each lysate was determined by dividing the luciferase activity value by the determined β-galactosidase value and reported as relative light units. […]

[1] = test system: 5′ flanking region of ABC1; assay: Luciferase reporter assay with ABC1 5′ flanking region constructs in RAW 264.7 cells; settings: wild-type sequence nucleotides 1080-1643; single ligand or both together
Experimental: (§1) Luciferase Assay: Following transfection, the cells in each well were lysed in 70 μl of 1× cell lysis reagent (Promega, Madison, Wis., Cat. #E3971), subjected to one freeze-thaw cycle, and the lysate cleared by centrifugation for 5 minutes at 12,000 g. After centrifugation, 100 μl of luciferase assay reagent (Promega, Madison, Wis.; Cat. #E1501) was added to 10 μl of lysate. The luciferase activity of each lysate was measured as light units using a luminometer. Additionally, the β-galactosidase activity of each lysate was measured using the chemiluminescent assay reagents supplied in the Galacto-light kit according to the manufacturer's instructions (Tropix Inc., Bedford, Mass.: Cat. #BL100G). The normalized luciferase activity for each lysate was determined by dividing the luciferase activity value by the determined β-galactosidase value and reported as relative light units.
Construction of Reporter Constructs: Reporter construct pAPR1 and control reporter construct pGL3-Basic were obtained as described in Example 15. […]
Transfection of Reporter Constructs: The RAW 264.7 cells were maintained in culture and transfected with either pGL3-Basic (1 μg), pAPR1 (1 μg), or one of the other reporter constructs according to the method described in Example 15. […] The luciferase activity was measured and reported as relative light units as described in Example 15.

[2] = test system: mutated sterol response element of ABC1 5′ flanking region; assay: Luciferase reporter assay with mutated sterol response element construct (nucleotides 1080-1643) in RAW 264.7 cells; settings: mutated sequence; oxysterol 10 μM
Experimental: as §1
Transfection of Reporter Constructs: The RAW 264.7 cells were maintained in culture and transfected with either pGL3-Basic (1 μg), pAPR1 (1 μg), or one of the other reporter constructs according to the method described in Example 15. […] The luciferase activity was measured and reported as relative light units as described in Example 15. […]

CC1=C(/C=C/C(C)=C\C=C\C(C)=C\C(=O)O)C(C)(C)CCC1 [9-cis retinoic acid]
increase in apoAI-induced cholesterol efflux (RAW 264.7 cells; 30 ng/ml, cholesterol-loaded mouse macrophage cells): ~3 fold
dose dependence of cholesterol efflux from macrophage cells (RAW 264.7 cells; 0.3, 3.0 or 30 ng/ml): dose-dependent manner
cholesterol efflux (RAW 264.7 cells; apo A-I and 9 cis-retinoic acid 30 ng/ml): 16%
cholesterol efflux counts (RAW 264.7 cells; apo A-I plus 0.3 ng/ml 9-cis-RA): 1522 c.p.m.
cholesterol efflux counts (RAW 264.7 cells; apo A-I plus 3.0 ng/ml 9-cis-RA): 3568 c.p.m.
cholesterol efflux counts (RAW 264.7 cells; apo A-I plus 30 ng/ml 9-cis-RA): 8597 c.p.m.
change in ABC1 mRNA expression (ABC1 mRNA): increase in ABC1 mRNA expression
increase in luciferase activity compared with EtOH control (ABC1 promoter; 9-cis RA 10 μM): 16 fold
transcriptional response (luciferase activity) [1]: produced a transcritional response

CC(C)CCC[C@](C)(O)[C@H]1CC[C@H]2[C@@H]3CC=C4C[C@@H](O)CC[C@]4(C)[C@H]3CC[C@@]21C [20(S)-hydroxycholesterol]
change in ABC1 mRNA expression (ABC1 mRNA): increase in ABC1 mRNA expression
increase in luciferase reporter activity compared with EtOH control (ABC1 promoter; 20(S) OH-chol 10 μM): 19 fold
transcriptional response (luciferase activity) [1]: produced a transcritional response
transcriptional response (luciferase activity) [2]: did not produce a transcriptional response

CC(C)CC[C@@H](O)[C@@H](C)[C@H]1CC[C@H]2[C@@H]3CC=C4C[C@@H](O)CC[C@]4(C)[C@H]3CC[C@]12C [22(R)-hydroxycholesterol]
increase in apoAI-induced cholesterol efflux (RAW 264.7 cells; 5 μg/ml, cholesterol-loaded mouse macrophage cells): ~3 fold
effect on cholesterol efflux (data not shown) (RAW 264.7 cells; similar assay, RAW 264.7 cells cholesterol-loaded for 48 hours): increase cholesterol efflux
transcriptional response (luciferase activity) [2]: did not produce a transcriptional response

CCCCC[C@H](O)/C=C/[C@@H]1[C@H]2C/C(=C/CCCC(=O)O)O[C@H]2C[C@H]1O [PG12, prostacyclin]
increase in apoAI-induced cholesterol efflux (RAW 264.7 cells; 25 nm, cholesterol-loaded mouse macrophage cells): ~2 fold
cholesterol efflux (RAW 264.7 cells; apo A-I and PG12 25 nm): 10%

CCCCC[C@H](O)/C=C/[C@H]1[C@H](O)CC(=O)[C@@H]1CCCCCCC(=O)O [PGE1, prostaglandin E1]
increase in apoAI-induced cholesterol efflux (RAW 264.7 cells; 25 nM, cholesterol-loaded mouse macrophage cells): ~3 fold
cholesterol efflux (RAW 264.7 cells; apo A-I and PGE1 25 nM): 15%

CC(C)OC(=O)C(C)(C)Oc1ccc(C(=O)c2ccc(Cl)cc2)cc1 [fenfibrate]
increase in cholesterol efflux (RAW 264.7 cells; 3 μg/ml, cholesterol-loaded mouse macrophage cells): ~2 fold
cholesterol efflux (RAW 264.7 cells; apo A-I and fenfibrate 3 μg/ml): 10%
